Assay results: patent US11479802B2, “Assays for screening activity of modulators of members of the hydroxy steroid (17-beta) dehydrogenase (HSD17B) family” (Regeneron Pharmaceuticals, Inc., priority 2017, dated 2022)
Where a name gives a salt, the structure may show the parent alone.

Target: T1, human HSD17B13 (Homo sapiens, UniProt Q7Z5P4)
T1 sequence (Q7Z5P4 20-300): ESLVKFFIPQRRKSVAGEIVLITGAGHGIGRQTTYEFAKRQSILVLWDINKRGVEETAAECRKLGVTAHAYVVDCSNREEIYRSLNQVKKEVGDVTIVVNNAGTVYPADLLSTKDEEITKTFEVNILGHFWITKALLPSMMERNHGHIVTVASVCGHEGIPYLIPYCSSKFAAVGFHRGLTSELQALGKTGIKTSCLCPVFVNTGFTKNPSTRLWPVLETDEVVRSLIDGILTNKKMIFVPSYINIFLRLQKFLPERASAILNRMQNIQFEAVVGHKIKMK
Experiment: Substrate screening of steroid and bioactive lipid libraries against purified recombinant HSD17B13 (NADH-linked luciferase assay)
Format: biochemical
Conditions: for HSD17B13 Enzymatic Activity Relative Light Units: 500 μM NAD+, 100 ng enzyme, 3 hours at 23° C.; for HSD17B13 Enzymatic Activity Percent Estradiol Control: normalized to 50 μM estradiol after subtraction of 5% DMSO
Procedure, shortened: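 Substrates (bioactive lipids 5 μM, steroids 50 μM; 5% DMSO) tested with 500 μM NAD+ and 100 ng recombinant human HSD17B13 in 0.2 M Tris-HCl pH 7.5, 3 h, 23° C. Luminescent NADH detection followed 1 h later; RLU normalized to estradiol (50 μM, 100%) and DMSO (0%) controls.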

[1] = Bioactive Lipid Library, 5 μM bioactive lipid (Estradiol Control 50 μM)
[2] = Bioactive Lipid Library, 5 μM bioactive lipid

Compound | HSD17B13 Enzymatic Activity Relative Light Units [1] | HSD17B13 Enzymatic Activity Percent Estradiol Control [2] | HSD17B13 Enzymatic Activity Relative Light Units (Steroid Library, 50 μM steroid) | HSD17B13 Enzymatic Activity Percent Estradiol Control (Steroid Library, 50 μM steroid)
O=C(O)CCC/C=C\C[C@@H]1[C@@H](/C=C/[C@@H](O)COc2ccc(I)cc2)[C@H]2CC[C@@H]1O2 [I-BOP] | 358960 RLU | 6.00% | – | –
C[C@@H](O)CCC[C@H](O)/C=C/[C@@H]1[C@@H](CCCCCCC(=O)O)[C@@H](O)C[C@H]1O [19(R)-hydroxy Prostaglandin F1α] | 207560 RLU | −5.97% | – | –
CCCCC[C@H](O)/C=C/[C@H]1[C@H](O)C[C@]2(C)C/C(=C\CCCC(=O)[O-])C[C@H]12.CCCCC[C@H](O)/C=C/[C@H]1[C@H](O)C[C@]2(C)C/C(=C\CCCC(=O)[O-])C[C@H]12.[Ca+2] [Ciprostene (calcium salt)] | 360560 RLU | 6.12% | – | –
C[C@@H]1C[C@@]2(C)[C@@H](CC[C@@H]3[C@@H]2CC[C@@]2(C)[C@H]3CC[C@]2(C)O)CC1=O [Superdrol] | – | – | 105920 RLU | −0.95%
CC/C=C\C/C=C\C/C=C\C=C\C(O)C/C=C\C/C=C\CCC(=O)O (racemic) [(±)10-HDHA] | 801680 RLU | 38.28% | – | –
O=P(O)(O)O[C@@H]1C(O)[C@@H](OP(=O)(O)O)[C@@H](OP(=O)(O)O)C(O)[C@H]1OP(=O)(O)O (stereo partly drawn) [D-myo-Inositol-1,2,4,5-tetraphosphate (sodium salt)] | 403880 RLU | 5.95% | – | –
CCCCC[C@H](O)/C=C/[C@H]1[C@H](O)CC(=O)[C@@H]1C/C=C\CCCC(=O)NCCCCCNC(=O)CCCC[C@H]1SC[C@@H]2NC(=O)N[C@@H]21 [Prostaglandin E2-biotin] | 389960 RLU | 4.90% | – | –
